Results published in patent US11937624B2, “Food composition” (INNOVAFOOD AB, priority 2011, dated 2024).
Marks after values point to notes of the source that are not given here.

What was measured:
blood glucose = assay: Postprandial blood glucose response to white wheat bread test meal with test drink (Example 1); assay type: in vivo, human
Procedure: (§1) Four different beverages were tested by the inventors; one reference, one with only the amino acid mixture, one with only CrPic, and one combining the amino acid mixture with CrPic. The amino acids used were L-leucine, L-isoleucine, L-lysine, L-valine and L-threonine.
(§2) The reference (“Ref”) drink was made out of tap water and aroma, poured into 330 mL bottles and carbonated with a Table Top Carbonator CF-121 (Omve) set at 10 g CO2/L.
(§3) The beverage with CrPic (“CrPic”) was prepared by dissolving one thawed pellet of concentrated CrPic solution (4.0 grams) in 308.0 grams of carbonated tap water and thereafter 0.19 grams of aroma was added. Additional CO2 was added just before serving with a Soda Streamer to mimic the amount in the Ref drink.
(§4) The beverage with amino acids (“5AA”) was prepared by dissolving 6.9 grams of the amino acid mixture in 305.1 grams of carbonated tap water and thereafter 0.19 grams of aroma was added. Additional CO2 was added just before serving with a Soda Streamer to mimic the amount in the Ref drink. See Table 7 for composition of amino acid mixture.
(§5) The beverage with amino acids and CrPic (“5AA+CrPic”) was prepared by dissolving 6.9 grams of the amino acid mixture and one thawed pellet of concentrated CrPic solution (4 grams) in 301.1 grams of carbonated tap water and thereafter 0.19 grams of aroma was added. Additional CO2 was added just before serving with a Soda Streamer to mimic the amount in the Ref drink.
(§6) The test meals consisted of sandwiches made of white wheat bread (Dollarfranska, Lockarps, Lockarp, Sweden), contributing with 50 grams of available starch, and the test drinks. The white wheat bread was spread with 10 grams of butter (Bregott, Arla, Stockholm, Sweden) and 24 grams of orange marmalade (kindly provided by Önos, Procordia Food, Eslöv). The sandwiches provided 9 grams of protein and an additional amount of carbohydrates from the marmalade and butter of 14 grams. A schematic overview of the composition of the different test meals is found in Table 2.
(§7) Nineteen healthy subjects, 11 men and 8 women, aged 38-60 (51±1 years; mean±SEM) and with body mass indexes of 24-30 (27.3±0.3 kg/m2; mean±SEM) were included in the study. All subjects had normal fasting blood glucose levels (5.6±0.1 mmol/L, mean±SEM).
(§8) The test subjects were instructed to eat a dinner of own choice (but with a low content of fiber) as well as an evening meal consisting of white wheat bread and a beverage, and to eat the same meals the evening before every test occasion. After the white wheat bread meal at around 9-10 p.m., the subjects were thereafter to restrain from ingesting anything but maximum a half glass of water on the morning of the test occasion.
(§9) Upon arrival at the laboratory at 07:45 on the test day, the subjects were sat to rest before a fasting capillary blood sample was drawn. Immediately thereafter, the test meal was served and a digital timer was started. Together with the drinks, a […] sandwich meal was served, containing 64 g available carbohydrates, 9.1 g protein and 11.7 g fat. The subjects were instructed to finish the meal in 10-15 minutes and to alternate between eating and drinking. All meals were well tolerated, and the subjects had no problems finishing eating within the 10-15 min period.
(§10) Capillary blood samples were taken at fasting and 15, 30, 45, 60, 90, 120 and 180 min after the ingestion of the meal for the analysis of blood glucose and serum insulin.
(§11) Blood glucose was immediately analyzed in serum with the use of a B-glucose analyzer (Hemocue AB, Ängelholm, Sweden). Serum tubes were centrifuged for 5 min (3000 rpm) and serum was frozen at −18° C. for the measurement of insulin. The serum insulin measurement was performed on an integrated immunoassay analyzer (CODA open Microplate System, Bio-Rad Laboratories, Hercules, CA) by using an enzyme immunoassay kit (Mercodia Insulin ELISA, Mercodia AB, Uppsala, Sweden). […]

serum insulin = assay: Postprandial serum insulin response to white wheat bread test meal with test drink (Example 1); assay type: in vivo, human
Procedure: as §1, §2, §3, §4, §5, §6, §7, §8, §9, §10, §11

[1] = Table 5 comparison, 0-120 min, mean ± SEM, n=19 (5AA n=18)
[2] = Table 5 comparison, vs Ref meal
[3] = healthy subjects, carbonated water drink with sandwich meal, 0-60 min, mean ± SEM, n=19 (5AA n=18)
[4] = healthy subjects, carbonated water drink with sandwich meal, 0-120 min, mean ± SEM, n=19 (5AA n=18)
[5] = healthy subjects, carbonated water drink with sandwich meal, 0-180 min, mean ± SEM, n=19 (5AA n=18)

In the case of Chromium tripicolinate [CrPic], the “Change in glucose iAUC 0-60 min as a percentage of the reference meal” value (blood glucose; 0-60 min, vs Ref meal) is reported as −13%, the “Change in glucose iAUC 0-120 min as a percentage of the reference meal” value (blood glucose; 0-120 min, vs Ref meal) is reported as −6% and the “Change in glucose iAUC 0-180 min as a percentage of the reference meal” value (blood glucose; 0-180 min, vs Ref meal) is reported as −4%. The Glucose iAUC 0-120 min (blood glucose; [1]) was 189 ± 20.7 mmol·min/L, the “Change (%) of glucose iAUC 0-120 min” value (blood glucose; [2]) was −6% and the “Blood glucose iAUC 0-60 min” value (blood glucose; [3]) was 100.2 ± 9.3^ac mmol min/L. The “Blood glucose iAUC 0-120 min” value (blood glucose; [4]) was 189.1 ± 20.7^ab mmol min/L, the “Blood glucose iAUC 0-180 min” value (blood glucose; [5]) was 222.3 ± 25.6 mmol·min/L and the “Change in insulin iAUC 0-60 min as a percentage of the reference meal” value (serum insulin; 0-60 min, vs Ref meal) was −12%. For the same substance, the “Change in insulin iAUC 0-120 min as a percentage of the reference meal” value (serum insulin; 0-120 min, vs Ref meal) was −10%, the “Change in insulin iAUC 0-180 min as a percentage of the reference meal” value (serum insulin; 0-180 min, vs Ref meal) was −11% and the Insulin iAUC 0-120 min (serum insulin; [1]) was 15.4 ± 1.9 nmol·min/L. For the same substance, the “Change (%) of insulin iAUC 0-120 min” value (serum insulin; [2]) was −10%, the “Insulin iAUC 0-60 min” value (serum insulin; [3]) was 7.5 ± 0.9^a nmol · min/L and the “Insulin iAUC 0-120 min” value (serum insulin; [4]) was 15.4 ± 1.9^a nmol · min/L. The “Insulin iAUC 0-180 min” value (serum insulin; [5]) was 18.5 ± 2.6^b nmol · min/L.
